Measured values: patent US8791143B2, “Anthranilic diamide derivatives having cyclic side-chains” (priority 2010, dated 2014)
Like-named read-outs stand apart in the source and are kept apart here.

Experiments:
[1] = log P by HPLC on reversed-phase columns (EEC Directive 79/831 Annex V.A8); assay type: physicochemical
[2] = system: larvae of the mustard beetle (Phaedon cochleariae); assay: Phaedon test (PHAECO spray treatment); details: for inhibition at 20 g/ha / pest or weed control at 100 g/ha / pest or weed control at 500 g/ha: Phaedon cochleariae, 168 h; for inhibition at 20 g/ha: read-out: % Activity PHAECO; for pest or weed control at 100 g/ha / pest or weed control at 500 g/ha: read-out: activity in % (beetle larvae killed)
[3] = system: green peach aphid (Myzus persicae); assay: Myzus test (MYZUPE spray treatment); assay type: in vivo; details: for pest or weed control at 100 g/ha / inhibition at 20 g/ha / inhibition at 100 g/ha / pest or weed control at 500 g/ha: Myzus persicae, 144 h; for pest or weed control at 100 g/ha / pest or weed control at 500 g/ha: read-out: activity in % (aphids killed); for inhibition at 20 g/ha / inhibition at 100 g/ha: 6 d, comparison with prior art
[4] = system: caterpillars of the armyworm (Spodoptera frugiperda); assay: Spodoptera frugiperda test (SPODFR spray treatment); assay type: in vivo; details: for pest or weed control at 100 g/ha / pest or weed control at 500 g/ha: read-out: activity in % (caterpillars killed)
[5] = application rate 100 g/ha, after 7 days
[6] = Spodoptera frugiperda, 168 h, 7 d, comparison with prior art
[7] = application rate 100 g/ha, after 6 days
[8] = reversed-phase C18 HPLC column, pH 2.7, HPLC reversed-phase C18, acidic range pH 2.7 (HCOOH), only or first value of the cell, read-out: log P
[9] = Spodoptera frugiperda, 168 h, application rate 100 g/ha, after 7 days

| chromatographic logP [1, 8] | Structure (SMILES) | chromatographic logP ([1]; pH 2.7, log P) | pest or weed control at 100 g/ha [3] [%] | pest or weed control at 100 g/ha [2] [%] | pest or weed control at 100 g/ha ([4]; Spodoptera frugiperda, 168 h) [%] | pest or weed control at 100 g/ha [4, 9] [%] | also measured |
| --- | --- | --- | --- | --- | --- | --- | --- |
|  | Cc1cc(C#N)cc(C(=O)NC2COC2)c1NC(=O)c1cc(Cn2nnc(C(F)(F)F)n2)nn1-c1ncccc1Cl [Example 1] | 2.49 | 90 |  |  |  | activity in % (beetle larvae killed) [2, 5]: 100%; inhibition at 20 g/ha [3]: 100%; activity in % (caterpillars killed) [4, 5]: 100% |
|  | Cc1cc(Cl)cc(C(=O)NC2COC2)c1NC(=O)c1cc(Cn2nnc(C(F)(F)F)n2)nn1-c1ncccc1Cl [Example 2] | 2.8 | 100 | 100 | 100 |  | inhibition at 20 g/ha [2]: 100%; inhibition at 100 g/ha [3]: 100%; inhibition at 20 g/ha [4, 6]: 100% |
|  | Cc1cc(Br)cc(C(=O)NC2COC2)c1NC(=O)c1cc(Cn2nnc(C(F)(F)F)n2)nn1-c1ncccc1Cl [Example 3] | 2.87 | 100 | 100 | 100 |  |  |
|  | Cc1cc(F)cc(C(=O)NC2COC2)c1NC(=O)c1cc(Cn2nnc(C(F)(F)F)n2)nn1-c1ncccc1Cl [Example 4] | 2.53 | 100 | 100 | 100 |  |  |
|  | Cc1cc(I)cc(C(=O)NC2COC2)c1NC(=O)c1cc(Cn2nnc(C(F)(F)F)n2)nn1-c1ncccc1Cl [Example 6] | 3 | 80 | 100 | 100 |  |  |
|  | Cc1cc(C)c(NC(=O)c2cc(Cn3nnc(C(F)(F)F)n3)nn2-c2ncccc2Cl)c(C(=O)NC2COC2)c1 [Example 7] | 2.67 | 90 | 100 | 100 |  |  |
|  | O=C(NC1COC1)c1cc(Cl)cc(Cl)c1NC(=O)c1cc(Cn2nnc(C(F)(F)C(F)(F)F)n2)nn1-c1ncccc1Cl [Example 10] | 3.18 |  | 100 | 100 |  | pest or weed control at 500 g/ha [3]: 100% |
|  | Cc1cc(C#N)cc(C(=O)NC2COC2)c1NC(=O)c1cc(Cn2nnc(C(F)(F)C(F)(F)F)n2)nn1-c1ncccc1Cl [Example 14] | 2.87 | 90 | 100 | 100 |  |  |
|  | Cc1cc(C#N)cc(C(=O)NC2CSC2)c1NC(=O)c1cc(Cn2nnc(C(F)(F)F)n2)nn1-c1ncccc1Cl [Example 15] | 3.06 | 100 | 100 | 100 |  |  |
|  | Cc1cc(C#N)cc(C(=O)NC2COC2)c1NC(=O)c1cc(Cn2nnc(C(F)(F)F)n2)nn1-c1ncccc1Cl [Example 20] |  |  | 100 | 100 |  | log P ([1]; pH 2.7): 2.51; activity in % (aphids killed) [3, 7]: 90% |
| 3.46 | Cc1cc(C#N)cc(C(=O)NC2CSC2)c1NC(=O)c1cc(Cn2nnc(C(F)(F)F)n2)nn1-c1ccccc1Cl [Example 25] |  |  | 100 |  | 100 | pest or weed control at 100 g/ha [3, 7]: 100% |
| 3.05 | Cc1cc(C#N)cc(C(=O)NC2COC2)c1NC(=O)c1cc(Cn2nnc(C(F)(F)F)n2)nn1-c1c(Cl)cccc1Cl [Example 28] |  |  | 100 |  | 100 | pest or weed control at 100 g/ha [3, 7]: 100% |
|  | Cc1cc(C#N)cc(C(=O)NC2CCS(=O)(=O)C2)c1NC(=O)c1cc(Cn2nnc(C(F)(F)F)n2)nn1-c1ncccc1Cl (centres unmarked) [Example 29, 1-(3-chloropyridin-2-yl)-N-{4-cyano-2-[(1,1-dioxidotetrahydrothiophen-3-yl)carbamoyl]-6-methylphenyl}-3-{[5-(trifluoromethyl)-2H-tetrazol-2-yl]methyl}-1H-pyrazole-5-carboxamide] | 2.47 |  |  |  |  | log P (second value after the slash) ([1]; pH 2.7): 2.17; pest or weed control at 500 g/ha [2]: 100%; pest or weed control at 500 g/ha [3]: 100%; inhibition at 100 g/ha [3]: 100%; pest or weed control at 500 g/ha ([4]; Spodoptera frugiperda, 168 h): 100% |
| 2.14 | Cc1cc(C#N)cc(C(=O)NC2CCN(Cc3ccccc3)C2)c1NC(=O)c1cc(Cn2nnc(C(F)(F)C(F)(F)F)n2)nn1-c1ncccc1Cl (centres unmarked) [Example 32] |  |  |  |  |  | pest or weed control at 500 g/ha [2]: 100%; pest or weed control at 100 g/ha [3, 7]: 90%; pest or weed control at 500 g/ha ([4]; Spodoptera frugiperda, 168 h, application rate 500 g/ha, after 7 days): 100% |
|  | Cc1cc(Cl)cc(C(=O)NC2CCS(=O)(=O)C2)c1NC(=O)c1cc(Cn2nnc(C(F)(F)F)n2)nn1-c1ncccc1Cl (centres unmarked) [Example 34] | 2.78 | 100 | 100 | 100 |  |  |
|  | Cc1cc(Cl)cc(C(=O)NC2CS(=O)(=O)CC2O)c1NC(=O)c1cc(Cn2nnc(C(F)(F)F)n2)nn1-c1ncccc1Cl (centres unmarked) [Example 35] | 2.58 | 80 | 100 | 100 |  |  |
| 3.65 | Cc1cc(C#N)cc(C(=O)NC2CCSCC2)c1NC(=O)c1cc(Cn2nnc(C(F)(F)F)n2)nn1-c1ccccc1Cl [Example 58] |  |  | 100 |  |  | pest or weed control at 100 g/ha [3, 7]: 100% |

| chromatographic logP [1, 8] | Structure (SMILES) | chromatographic logP ([1]; pH 2.7, log P) | pest or weed control at 100 g/ha [3] [%] | pest or weed control at 100 g/ha [2] [%] | pest or weed control at 100 g/ha ([4]; Spodoptera frugiperda, 168 h) [%] | pest or weed control at 100 g/ha [4, 9] [%] | also measured |
| --- | --- | --- | --- | --- | --- | --- | --- |
| 4.23 | Cc1cc(C#N)cc(C(=O)NCc2cccc(OC(F)(F)F)c2)c1NC(=O)c1cc(Cn2nnc(C(F)(F)F)n2)nn1-c1c(Cl)cccc1Cl [Example 214] |  |  | 100 |  | 100 |  |
| 3.78 | Cc1cc(C#N)cc(C(=O)NCc2cccc(OC(F)F)c2)c1NC(=O)c1cc(Cn2nnc(C(F)(F)F)n2)nn1-c1c(Cl)cccc1Cl [Example 215] |  |  | 100 |  | 100 |  |
| 4.1 | Cc1cc(C#N)cc(C(=O)NCc2ccc(OC(F)F)cc2)c1NC(=O)c1cc(Cn2nnc(C(F)(F)F)n2)nn1-c1c(Cl)cccc1Cl [Example 216] |  |  | 100 |  | 100 |  |
| 4.28 | Cc1cc(C#N)cc(C(=O)NCc2ccccc2OC(F)(F)F)c1NC(=O)c1cc(Cn2nnc(C(F)(F)F)n2)nn1-c1ccccc1Cl [Example 217] |  |  | 100 |  | 100 |  |
|  | Cc1cccc(CNC(=O)c2cc(Cl)cc(C)c2NC(=O)c2cc(Cn3nnc(C(F)(F)F)n3)nn2-c2ncccc2Cl)n1 [Example 225] | 2.24 |  | 100 | 100 |  |  |
| 3.7 | Cc1cc(Cl)cc(C(=O)NCc2ccc(C(F)(F)F)cn2)c1NC(=O)c1cc(Cn2nnc(C(F)(F)F)n2)nn1-c1ncccc1Cl [Example 226] |  |  | 100 |  | 100 |  |
|  | CCc1cccc(CNC(=O)c2cc(Cl)cc(C)c2NC(=O)c2cc(Cn3nnc(C(F)(F)F)n3)nn2-c2ncccc2Cl)n1 [Example 228] | 2.22 |  | 100 | 100 |  |  |
| 4.23 | Cc1cc(Cl)cc(C(=O)NCc2ncc(C(F)(F)F)cc2Cl)c1NC(=O)c1cc(Cn2nnc(C(F)(F)F)n2)nn1-c1ncccc1Cl [Example 230] |  |  | 100 |  | 100 |  |
|  | Cc1cc(Cl)cc(C(=O)NCc2cc(Cl)ccn2)c1NC(=O)c1cc(Cn2nnc(C(F)(F)F)n2)nn1-c1ncccc1Cl [Example 232] | 3.45 |  | 100 | 100 |  |  |
| 4.27 | Cc1cc(Cl)cc(C(=O)NCc2cccc(-c3ccccc3)n2)c1NC(=O)c1cc(Cn2nnc(C(F)(F)F)n2)nn1-c1ncccc1Cl [Example 233] |  |  | 100 |  | 100 |  |
| 4.04 | Cc1cc(Cl)cc(C(=O)NC(C)c2ccc(C(F)(F)F)cn2)c1NC(=O)c1cc(Cn2nnc(C(F)(F)F)n2)nn1-c1ncccc1Cl (centres unmarked) [Example 234] |  |  | 100 |  | 100 |  |
|  | Cc1cc(Cl)cc(C(=O)NCc2ccc(Cl)nc2)c1NC(=O)c1cc(Cn2nnc(C(F)(F)F)n2)nn1-c1ncccc1Cl [Example 235] | 3.42 |  | 100 | 100 |  |  |
|  | Cc1cc(C#N)cc(C(=O)NC2CCC2)c1NC(=O)c1cc(Cn2nnc(C(F)(F)F)n2)nn1-c1ncccc1Cl [No. 1 known WO2007/144100, reference compound] |  |  |  |  |  | inhibition at 20 g/ha [3]: 80% |
|  | Cc1cc(C#N)cc(C(=O)NC2CCCC2)c1NC(=O)c1cc(Cn2nnc(C(F)(F)F)n2)nn1-c1ncccc1Cl [No. 2 known WO2007/144100, reference compound] |  |  |  |  |  | inhibition at 100 g/ha [3]: 70% |
|  | Cc1cc(C#N)cc(C(=O)NC2CCCC2)c1NC(=O)c1cc(Cn2nnc(C(F)(F)F)n2)nn1-c1ccccc1Cl [No. 3 known WO2007/144100, reference compound] |  |  |  |  |  | inhibition at 100 g/ha [3]: 0%; inhibition at 100 g/ha ([4]; Spodoptera frugiperda, 168 h, 100 g/ha, 7 d, comparison with prior art): 83% |
|  | Cc1cc(Cl)cc(C(=O)NC2CCC2)c1NC(=O)c1cc(Cn2nnc(C(F)(F)F)n2)nn1-c1ncccc1Cl [No. 4 known WO2007/144100, reference compound] |  |  |  |  |  | inhibition at 20 g/ha [2]: 33%; inhibition at 100 g/ha [3]: 0%; inhibition at 20 g/ha [4, 6]: 83% |
